The results in this text go back to patent publication US20160022761A1, “DEREPRESSION OF IMMUNITY IN ONCOLOGICAL AND VIROLOGICAL CONDITIONS BY HIGH MOBILITY GROUP BOX 1 DERIVED PEPTIDES” (priority 2014, published 2016).

The subject of this assay is human Treg cells. Description: Inhibitory activity of human Treg cells in in vitro assays of T cell stimulation (anti-CD3 or MLR, tritiated thymidine proliferation). The class given is cell-based. The following applies: all treatment groups (0.01 ug/ml, 0.1 ug/ml and 1 ug/ml), 72 hours culture; compared to controls that received scrambled peptide (FFSAFLSEC). The method, then:
Isolation of human CD4+, CD4+CD25+, and CD4+CD25− T cells was performed from PBMC by using human Treg isolation kits (Miltenyi Biotec), respectively, according to the manufacturer's instructions. The purity of the resulting T cell populations was confirmed to be >95% by flow cytometry.
Inhibitory activity of human Treg cells was measured in in vitro assays of T cell stimulation. CD25-depleted spleen cells (10^5 cells/well) from human PBMC (105) were stimulated in vitro with the following: anti-human CD3 Ab (BD Pharmingen) or human PBMC (105) from a different donor (to induce a MLR). Cultures were maintained for 72 hours in the presence of SAFFLFCSE peptide at concentrations of 0.01 ug/ml, 0.1 ug/ml and 1 ug/ml. Tritiated thymidine was added at a concentration of 1 microcurie per well for the last 12 hours of culture. Scintillation counting was used to assess proliferation.

In the case of SAFFLFCSE, the “inhibition of T regulatory cell suppressive activity” value is on record as > 80%.
